Measured values as given in patent US9630977B2, “Cephalosporin derivatives and pharmaceutical compositions thereof” (Legochem Biosciences, Inc., priority 2011, dated 2017).
Converted amounts (≈) assume the structure as drawn. Where two headings read alike, the source gives them in different places.

How the values were obtained:
Assay in all cases: In vitro antibacterial activity test (broth microdilution)
Format in all cases: cell-based
A. baumannii 46 = test system: A. baumannii 46
Procedure, shortened: (§1)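 MIC90 (ug/mL) determined by CLSI broth microdilution against clinical isolates, defined as lowest concentration inhibiting visible growth of 90% of organisms after incubation versus untreated control. Compounds tested from 0.0626 to 128 ug/mL final, with 2.5% (V/V) DMSO.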

A. baumannii 49 = test system: A. baumannii 49
Procedure, shortened: as §1

A. baumannii 52 = details: Acinetobacter baumannii
Procedure, shortened: as §1

[1] = test system: A. calcoaceticus ATCC15473; details: Acinetobacter calcoaceticus
Procedure, shortened: as §1

E. cloacae β19 = details: Enterobacter cloacae
Procedure, shortened: as §1

E. coli AG100 = details: Escherichia coli
Procedure, shortened: as §1

E. coli β4 = details: Escherichia coli
Procedure, shortened: as §1

K. pneumoniae 2011E = details: Klebsiella pneumoniae, 2011E
Procedure, shortened: as §1

K. pneumoniae β10 = details: Klebsiella pneumoniae
Procedure, shortened: as §1

K. pneumoniae β11 = details: Klebsiella pneumoniae
Procedure, shortened: as §1

K. pneumoniae β13 = details: Klebsiella pneumoniae
Procedure, shortened: as §1

K. pneumoniae β14 = details: Klebsiella pneumoniae
Procedure, shortened: as §1

K. pneumoniae β9 = details: Klebsiella pneumoniae
Procedure, shortened: as §1

M. catarrhalis 2524 = details: Moraxella catarrhalis
Procedure, shortened: as §1

P. aeruginosa 1912E = details: Pseudomonas aeruginosa, 1912E
Procedure, shortened: as §1

P. aeruginosa 37 = details: Pseudomonas aeruginosa, 37, P. aeruginosa 37
Procedure, shortened: as §1

P. aeruginosa 40 = test system: P. aeruginosa 40
Procedure, shortened: as §1

P. aeruginosa 43 = details: Pseudomonas aeruginosa
Procedure, shortened: as §1

P. aeruginosa 6065Y = details: Pseudomonas aeruginosa
Procedure, shortened: as §1

[2] = Acinetobacter baumannii, 46, A. baumannii 46
[3] = Acinetobacter baumannii, 49, A. baumannii 49
[4] = ATCC15473, A. calcoaceticus ATCC15473
[5] = Acinetobacter baumannii, A. baumannii 46, read-out: MIC90
[6] = Acinetobacter baumannii, A. baumannii 49, read-out: MIC90
[7] = A. baumannii 52, read-out: MIC90
[8] = A. calcoaceticus ATCC15473, read-out: MIC90
[9] = AG100, E. coli AG100, read-out: MIC90
[10] = K. pneumoniae 2011E, read-out: MIC90
[11] = K. pneumoniae β10, read-out: MIC90
[12] = K. pneumoniae β11, read-out: MIC90
[13] = K. pneumoniae β13, read-out: MIC90
[14] = K. pneumoniae β9, read-out: MIC90
[15] = M. catarrhalis 2524, read-out: MIC90
[16] = Pseudomonas aeruginosa, 40, P. aeruginosa 40, read-out: MIC90
[17] = P. aeruginosa 43, read-out: MIC90

| Structure (SMILES) | MIC90 (A. baumannii 46; [5]) | MIC90 (A. baumannii 49; [6]) | MIC90 (A. baumannii 52; [7]) | MIC90 [1, 8] | MIC90 (E. cloacae β19; read-out: MIC90) | MIC90 (E. coli AG100; [9]) | MIC90 (E. coli β4; read-out: MIC90) | MIC90 (K. pneumoniae 2011E; [10]) | MIC90 (K. pneumoniae β10; [11]) | MIC90 (K. pneumoniae β11; [12]) | MIC90 (K. pneumoniae β13; [13]) | MIC90 (K. pneumoniae β14; read-out: MIC90) | MIC90 (K. pneumoniae β9; [14]) | MIC90 (M. catarrhalis 2524; [15]) | MIC90 (P. aeruginosa 1912E; read-out: MIC90) | MIC90 (P. aeruginosa 37; read-out: MIC90) | MIC90 (P. aeruginosa 40; [16]) | MIC90 (P. aeruginosa 43; [17]) | MIC90 (P. aeruginosa 6065Y; read-out: MIC90) | MIC90 (A. baumannii 46; [2]) | other results |
| --- | --- | --- | --- | --- | --- | --- | --- | --- | --- | --- | --- | --- | --- | --- | --- | --- | --- | --- | --- | --- | --- |
| CC(C)(O/N=C(\C(=O)N[C@@H]1C(=O)N2C(C(=O)[O-])=C(/C=C/C[n+]3cnc(N)c(NCCN)c3N)CSC12)c1csc(N)n1)C(=O)O (stereo partly drawn) [Compound 44] | – | – | – | – | – | – | – | – | – | – | – | – | – | – | – | – | – | – | – | 16 µg/mL (≈ 24.2 µM) | MIC90 (A. baumannii 49; [3]): > 128 µg/mL; MIC90 (A. baumannii 52; 52): > 128 µg/mL; MIC90 [1, 4]: 1 µg/mL (≈ 1.51 µM); MIC90 (E. cloacae β19): 0.5 µg/mL (≈ 0.756 µM); MIC90 (E. coli AG100; AG100): 0.25 µg/mL (≈ 0.378 µM); MIC90 (E. coli β4): 0.5 µg/mL (≈ 0.756 µM); MIC90 (K. pneumoniae 2011E): 0.5 µg/mL (≈ 0.756 µM); MIC90 (K. pneumoniae β10): 0.5 µg/mL (≈ 0.756 µM); MIC90 (K. pneumoniae β11): 32 µg/mL (≈ 48.4 µM); MIC90 (K. pneumoniae β13): 1 µg/mL (≈ 1.51 µM); MIC90 (K. pneumoniae β14): 1 µg/mL (≈ 1.51 µM); MIC90 (K. pneumoniae β9): 1 µg/mL (≈ 1.51 µM); MIC90 (M. catarrhalis 2524; 2524): < 0.0625 µg/mL; MIC90 (P. aeruginosa 1912E): 8 µg/mL (≈ 12.1 µM); MIC90 (P. aeruginosa 37): 16 µg/mL (≈ 24.2 µM); MIC90 (P. aeruginosa 40; Pseudomonas aeruginosa, 40): 16 µg/mL (≈ 24.2 µM); MIC90 (P. aeruginosa 43; 43): 128 µg/mL (≈ 193 µM); MIC90 (P. aeruginosa 6065Y; 6065Y): 32 µg/mL (≈ 48.4 µM) |
| CC(C)(O/N=C(\C(=O)N[C@@H]1C(=O)N2C(C(=O)[O-])=C(/C=C/C[n+]3cnc(N)c(NC(=O)CCCN)c3)CSC12)c1csc(N)n1)C(=O)O (stereo partly drawn) [Compound 63] | – | – | – | – | – | – | – | – | – | – | – | – | – | – | – | – | – | – | – | 8 µg/mL (≈ 11.6 µM) | MIC90 (A. baumannii 49; [3]): 128 µg/mL (≈ 186 µM); MIC90 (A. baumannii 52; 52): 128 µg/mL (≈ 186 µM); MIC90 [1, 4]: 1 µg/mL (≈ 1.45 µM); MIC90 (E. cloacae β19): 16 µg/mL (≈ 23.2 µM); MIC90 (E. coli AG100; AG100): 0.125 µg/mL (≈ 0.181 µM); MIC90 (E. coli β4): 0.25 µg/mL (≈ 0.363 µM); MIC90 (K. pneumoniae 2011E): 0.25 µg/mL (≈ 0.363 µM); MIC90 (K. pneumoniae β10): 0.5 µg/mL (≈ 0.726 µM); MIC90 (K. pneumoniae β11): 32 µg/mL (≈ 46.5 µM); MIC90 (K. pneumoniae β13): 1 µg/mL (≈ 1.45 µM); MIC90 (K. pneumoniae β14): 1 µg/mL (≈ 1.45 µM); MIC90 (K. pneumoniae β9): 1 µg/mL (≈ 1.45 µM); MIC90 (M. catarrhalis 2524; 2524): < 0.0625 µg/mL; MIC90 (P. aeruginosa 1912E): 2 µg/mL (≈ 2.9 µM); MIC90 (P. aeruginosa 37): 32 µg/mL (≈ 46.5 µM); MIC90 (P. aeruginosa 40; Pseudomonas aeruginosa, 40): 4 µg/mL (≈ 5.81 µM); MIC90 (P. aeruginosa 43; 43): 128 µg/mL (≈ 186 µM); MIC90 (P. aeruginosa 6065Y; 6065Y): 16 µg/mL (≈ 23.2 µM) |
| CC(C)(O/N=C(\C(=O)N[C@@H]1C(=O)N2C(C(=O)[O-])=C(C[n+]3cnc(NCCNC(=O)c4cc(=O)c(O)cn4O)c(N)c3)CSC12)c1csc(N)n1)C(=O)O (stereo partly drawn) [Compound 6] | 32 µg/mL (≈ 41.4 µM) | > 128 µg/mL | > 128 µg/mL | 2 µg/mL (≈ 2.58 µM) | 2 µg/mL (≈ 2.58 µM) | 0.25 µg/mL (≈ 0.323 µM) | 4 µg/mL (≈ 5.17 µM) | 4 µg/mL (≈ 5.17 µM) | 0.5 µg/mL (≈ 0.646 µM) | 8 µg/mL (≈ 10.3 µM) | 0.125 µg/mL (≈ 0.162 µM) | 16 µg/mL (≈ 20.7 µM) | 2 µg/mL (≈ 2.58 µM) | 2 µg/mL (≈ 2.58 µM) | 0.5 µg/mL (≈ 0.646 µM) | 0.5 µg/mL (≈ 0.646 µM) | 0.5 µg/mL (≈ 0.646 µM) | 0.5 µg/mL (≈ 0.646 µM) | 2 µg/mL (≈ 2.58 µM) | – | – |
| CC(C)(O/N=C(\C(=O)N[C@@H]1C(=O)N2C(C(=O)[O-])=C(C[n+]3cnc(N)c(NCCCCNC(=O)c4cc(=O)c(O)cn4O)c3)CSC12)c1csc(N)n1)C(=O)O (stereo partly drawn) [Compound 7] | 4 µg/mL (≈ 4.99 µM) | 8 µg/mL (≈ 9.98 µM) | 16 µg/mL (≈ 20 µM) | 1 µg/mL (≈ 1.25 µM) | 1 µg/mL (≈ 1.25 µM) | < 0.0625 µg/mL | 0.125 µg/mL (≈ 0.156 µM) | 2 µg/mL (≈ 2.49 µM) | 4 µg/mL (≈ 4.99 µM) | 16 µg/mL (≈ 20 µM) | < 0.0625 µg/mL | 32 µg/mL (≈ 39.9 µM) | < 0.0625 µg/mL | 2 µg/mL (≈ 2.49 µM) | 0.5 µg/mL (≈ 0.624 µM) | 0.125 µg/mL (≈ 0.156 µM) | 0.125 µg/mL (≈ 0.156 µM) | 0.25 µg/mL (≈ 0.312 µM) | 1 µg/mL (≈ 1.25 µM) | – | – |

The next lines start with results.

| MIC90 (A. baumannii 46; [5]) | MIC90 (A. baumannii 49; [6]) | MIC90 (A. baumannii 52; [7]) | MIC90 [1, 8] | MIC90 (E. cloacae β19; read-out: MIC90) | MIC90 (E. coli AG100; [9]) | MIC90 (E. coli β4; read-out: MIC90) | MIC90 (K. pneumoniae 2011E; [10]) | MIC90 (K. pneumoniae β10; [11]) | MIC90 (K. pneumoniae β11; [12]) | MIC90 (K. pneumoniae β13; [13]) | MIC90 (K. pneumoniae β14; read-out: MIC90) | MIC90 (K. pneumoniae β9; [14]) | MIC90 (M. catarrhalis 2524; [15]) | MIC90 (P. aeruginosa 1912E; read-out: MIC90) | MIC90 (P. aeruginosa 37; read-out: MIC90) | MIC90 (P. aeruginosa 40; [16]) | MIC90 (P. aeruginosa 43; [17]) | MIC90 (P. aeruginosa 6065Y; read-out: MIC90) | Structure (SMILES) | MIC90 (A. baumannii 46; [2]) | other results |
| --- | --- | --- | --- | --- | --- | --- | --- | --- | --- | --- | --- | --- | --- | --- | --- | --- | --- | --- | --- | --- | --- |
| 128 µg/mL (≈ 158 µM) | 8 µg/mL (≈ 9.9 µM) | 2 µg/mL (≈ 2.47 µM) | 0.5 µg/mL (≈ 0.619 µM) | 32 µg/mL (≈ 39.6 µM) | 2 µg/mL (≈ 2.47 µM) | 16 µg/mL (≈ 19.8 µM) | 8 µg/mL (≈ 9.9 µM) | 0.25 µg/mL (≈ 0.309 µM) | 64 µg/mL (≈ 79.2 µM) | 2 µg/mL (≈ 2.47 µM) | 128 µg/mL (≈ 158 µM) | 4 µg/mL (≈ 4.95 µM) | 0.25 µg/mL (≈ 0.309 µM) | 0.5 µg/mL (≈ 0.619 µM) | 0.125 µg/mL (≈ 0.155 µM) | 0.5 µg/mL (≈ 0.619 µM) | 0.25 µg/mL (≈ 0.309 µM) | 1 µg/mL (≈ 1.24 µM) | CC(C)(O/N=C(\C(=O)N[C@@H]1C(=O)N2C(C(=O)[O-])=C(C[n+]3cnc(N)c(NCCNC(=O)c4cc(=O)c(O)cn4O)c3)CSC12)c1nc(N)sc1Cl)C(=O)O (stereo partly drawn) [Compound 15] | – | – |
| 16 µg/mL (≈ 19.5 µM) | 32 µg/mL (≈ 38.9 µM) | 2 µg/mL (≈ 2.43 µM) | 1 µg/mL (≈ 1.22 µM) | 8 µg/mL (≈ 9.73 µM) | 0.25 µg/mL (≈ 0.304 µM) | 8 µg/mL (≈ 9.73 µM) | 8 µg/mL (≈ 9.73 µM) | 0.5 µg/mL (≈ 0.608 µM) | 16 µg/mL (≈ 19.5 µM) | 1 µg/mL (≈ 1.22 µM) | 64 µg/mL (≈ 77.8 µM) | 2 µg/mL (≈ 2.43 µM) | 0.5 µg/mL (≈ 0.608 µM) | 4 µg/mL (≈ 4.87 µM) | 2 µg/mL (≈ 2.43 µM) | 4 µg/mL (≈ 4.87 µM) | 1 µg/mL (≈ 1.22 µM) | 1 µg/mL (≈ 1.22 µM) | C[C@H](O/N=C(\C(=O)N[C@@H]1C(=O)N2C(C(=O)[O-])=C(C[n+]3cnc(N)c(NC(=O)CCNC(=O)c4cc(=O)c(O)cn4O)c3)CSC12)c1nc(N)sc1Cl)C(=O)O (stereo partly drawn) [Compound 20] | – | – |
